Results published in patent publication US20140038920A1, “TFEB PHOSPHORYLATION INHIBITORS AND USES THEREOF” (FONDAZIONE TELETHON, priority 2011, published 2014).

Legend:
TFEB [1] = assay: TFEB nuclear localization in starved HeLa cells overexpressing TFEB, re-stimulated with media plus supplements or inhibitors (nuclear fractionation, Flag blot, immunofluorescence); type: cell-based; settings: starved cells stimulated with normal medium supplemented with kinase inhibitor (FIG. 2g, 11b)
From the text: (A) Scatter Plot graphs displaying the logarithmic value of the fold change differences in the relative expression levels of 51 autophagy-related genes in HeLa cells cultured in different conditions. X-axis=control group. Y-axis=treated group. Circles represent genes with increased (red) or decreased (green) fold change. Comparisons were as indicated. (B) Chromatin immunoprecipitation (ChIP) analysis. […] Values were normalized to the input and plotted as relative enrichment over a mock control. Experiments were performed in triplicate. (C) qPCR analysis of TFEB-target gene expression in normal, starved, and in TFEB-siRNA starved cells. GAPDH and HPRT represents housekeeping genes, while ATG10, ATG9A and ATG4D represent control genes (non-TFEB target genes). (D-F) HeLa cells stably overexpressing TFEB were left untreated or nutrient starved for 4 h. (D) Five fields containing 50-100 cells/each were analyzed for TFEB nuclear localization. […] (E) Cells were subjected to nuclear/cytosolic fractionation and blotted with Flag antibody. H3 and tubulin were used as nuclear and cytosolic markers, respectively. (F) Nuclear fractions were blotted with Flag and H3 (loading control) antibodies. (G) Western blot analysis of Flag, tubulin and H3 in nuclear extracts prepared from normal, starved and starved/stimulated with normal media cells for 1 h (normal) or pretreated with AP-2 (AKT inhibitor), Rapamycin (mTOR inhibitor) and U0126 (MEK inhibitor) 1 h prior to media stimulation. Total extracts were used to verify the efficiency of the inhibitors. […] Starvation was performed where indicated. (All error bars represent standard deviations. T-test (unpaired) p value (*)<0.05, (**)<0.01)
Cytosolic and nuclear fractions were subjected to Flag immunoblotting. […] Error bars represent standard deviations.
Cells were seeded at 50% of confluence in 6 well dishes and serum starved overnight (ON). Normal medium was added the following day either in presence of DMSO or kinase inhibitors. Subcellular fractionation was carried out as previously reported.
To identify the mechanism of starvation-induced activation of TFEB, the applicants analyzed its subcellular localization and post-translational modifications in starved cells.

TFEB [2] = assay: TFEB molecular weight shift and localization in TFEB-3xFLAG HeLa cells stimulated with amino-acid rich medium plus inhibitor (FIG. 19B); type: cell-based; settings: Torin 1 250 nM, Rapamycin 2.5 μM
Method: FIG. 19 mTORC1 regulates TFEB. (A) Lysosomal stress inhibits mTOR signaling. Immunoblotting of protein extracts isolated from HeLa cells treated overnight, as indicated. Membranes were probed with antibodies for p-T202/Y204-ERK1/2, ERK1/2, p-T389-S6K, and S6K to measure ERK and mTORC1 activities. […] FLAG immunoblotting of cytosolic and nuclear fractions isolated from TFEB-3×FLAG HeLa cells cultured in amino acid-free media and subsequently stimulated as indicated for at least 3 h. Correct subcellular fractionation was verified with H3 and tubulin antibodies. (C, D) Effects and dose—response curves of ERK and mTOR inhibitors on TFEB nuclear translocation. […] After 3 h at 37° C. in RPMI medium containing one of each of the compounds, the cells were washed, fixed, and stained with DAPI and photographed by using confocal automated microscopy (Opera high content system, Perkin Elmer). (C) Representative images of test concentrations for each compound. Scale bars represent 30 μm. […] The EC50 for each compound was calculated using Prism software (see Materials and Methods for details). (E) Amino acids induce TFEB molecular weight shift. Immunoblotting of protein extracts isolated from HEK-293T cells transfected either TFEB-3×FLAG or with an empty vector were nutrient starved and stimulated for 50 minutes with amino acids (a.a.). Antibody used were p-T389-S6K, S6K and FLAG. (F) Rag knockdown induces TFEB nuclear translocation. HeLa cells stably expressing Flag-3×TFEB were infected with lentiviruses encoding a Short hairpin (Sh-) RNA targeting luciferase (control) or RagC and RagD mRNAs. […] TFEB localization was detected with a FLAG antibody, whereas tubulin and H3 were used as controls for the cytosolic and nuclear fraction, respectively; levels of S6K phosphorylation were used to test RagC and RagD knockdown efficiency.
The mouse anti-TFEB monoclonal antibody was purchased from My Biosource catalogue No. MBS 120432. To generate anti-pS142 specific antibodies, rabbits were immunized with the following peptide coupled to KLH: AGNSAPN{pSer}[…]. Following the fourth immunization, rabbits were sacrificed and the serum was collected. Non-phosphospecific antibodies were depleted from the serum by circulation through a column containing the nonphosphorylated antigene. The phosphospecific antibodies were subsequently purified using a column containing the phosphorylated peptide. Cells were lysed with M-PER buffer (Thermo) containing protease and phosphatase inhibitors (Sigma); nuclear/cytosolic fractions were isolated as above described. Proteins were separated by SDS-PAGE (Invitrogen; reduced NuPAGE 4-12% Bis-tris Gel, MES SDS buffer). If needed, the gel was stained using 20 ml Imperial Protein Stain (Thermo Fisher) at room temperature for 1 h and de-stained with water. […]

[3] = test system: glycosaminoglycan (GAG) accumulation in MSD NSCs; assay: Alcian blue staining of GAGs in differentiated NSCs from MSD mice (FIG. 22); type: cell-based, mouse; settings: glia-differentiated MSD NSCs, 10 nM, 24 hours, versus DMSO
Method: After 24 hours, the GAG content was determined by alcian blue (AB) staining. Both torins were able to reduce GAG staining in MSD treated cells as compared to DMSO treated cells.
Neuronal progenitor cells were isolated from cortices of WT and MSD pups (P0) by tissue homogenization using the neural tissue dissociation kit and separation using magnetic sorting of cells expressing the stem cell marker prominin-1 (Miltenyi Biotec Srl). Neuronal progenitor cells were maintained in ESGRO complete medium (Hyclone) in the presence of EGF and FGF2 growth factors (Prepotech). Where indicated, neural stem cells (NSCs) were differentiated by removing growth factors and incubate in ESGRO medium containing 2% of serum for at least 48 h.
Neuronal progenitor cells were isolated from cortices of WT and MSD pups (P0) by using standard protocols. Neuronal stem cells (NSCs) were fixed in Methacarn (60% Methanol; 10% Acetic Acid; 30% Chloroform) for 15 min at RT. After washing the cells were stained for 3 hours in 1% alcian blue pH 2.5, rinsed in 0.3% acetic acid and water and mounted in 100% for visualization.

## CO[C@H]1C[C@@H]2CC[C@@H](C)[C@@](O)(O2)C(=O)C(=O)N2CCCC[C@H]2C(=O)O[C@H]([C@H](C)C[C@@H]2CC[C@@H](O)[C@H](OC)C2)CC(=O)[C@H](C)/C=C(\C)[C@@H](O)[C@@H](OC)C(=O)[C@H](C)C[C@H](C)/C=C/C=C/C=C/1C [RAPAMYCIN]
TFEB [1]
  TFEB nuclear localization: no effect
TFEB [2]
  TFEB subcellular localization after nutrient stimulation: did not affect TFEB subcellular localization
TFEB [2]; U0126 50 μM
  TFEB molecular weight shift induced by nutrients: partial molecular weight shift

## CCC(=O)N1CCN(c2ccc(-n3c(=O)ccc4cnc5ccc(-c6cnc7ccccc7c6)cc5c43)cc2C(F)(F)F)CC1 [TORIN 1]
TFEB [2]
  TFEB subcellular localization after nutrient stimulation: massive TFEB nuclear accumulation
[3]
  alcian blue-stained GAGs: striking reduction
